Laboratory results reported in patent US6407135B1, “Conjugates of dithiocarbamates with pharmacologically active agents and uses therefor” (Medinox, Inc., priority 1997, dated 2002).

Test system: Lewis male rats
Conditions: high doses, oral daily days 5-8 and 11-14; naproxen 10 mg/kg, conjugate 18 mg/kg

## COc1ccc2cc([C@H](C)C(=O)O)ccc2c1 [Naproxen, (S)-(+)-methoxy-α-methyl-2-naphthaleneacetic acid]
  Reduction of swelling compared to control by day 15: approximately 70%
